Data: patent US11701382B2, “Treatment of post-operative joint pain with polysulfated polysaccharides” (PARADIGM BIOPHARMACEUTICALS LTD., priority 2018, dated 2023)

Key:
Type in all cases: in vivo, human
[1] = system: patient with degenerative osteoarthritis in the left knee; experiment: Numerical Rating Scale (NRS) pain score, left knee with degenerative osteoarthritis, patient treated with PPS; conditions: left knee (degenerative OA); PPS 2 mg/kg SC twice weekly for 3 weeks (6 injections); 0-10 scale; before PPS 8
Text: (§1) Example 1 is a study of the safety, tolerability and result of a patient treated with PPS suffering from degenerative osteoarthritis in the left knee with bone marrow edema lesions (BMEL), as assessed by magnetic resonance imaging (MRI), and from persistent pain following total right knee arthroplasty.
(§2) The patient had end stage osteroarthrtis (OA) in their right knee. They underwent a total knee replacement (TKR) in the right knee and had aseptic, persistent pain from that joint post replacement. They also had pain in their left knee (degenerative osteoarthritis) and was recommended to have a TKR in that joint.
(§3) They were treated with PPS. The treatment regimen consisted of administration of PPS, at a preferred dose of 2 mg/kg of body weight, twice weekly for three weeks by subcutaneous injection (total of six injections).
(§4) The protocol featured the following: • Treatment regimen: 2× weekly subcutaneous injections of PPS (preferred dose 2 mg/kg) for 3 weeks (total of 6 injections)
Numerical Rating Scale (NRS) is an 11-point scale (0-10). A state of no pain is 0 and the worst pain imaginable is 10.

[2] = system: patient with degenerative osteoarthritis in the left knee; experiment: Lysholm Knee Score (knee function), left knee, patient treated with PPS; conditions: left knee (degenerative OA); PPS 2 mg/kg SC twice weekly for 3 weeks; 0-100 scale; before PPS 58
Text: as §1, §2, §3, §4
Lysholm Knee Score is a total score of 0-100 is calculated based on the results from the eight functional components of the Lysholm knee score scale: Limp (5 points), Support (5 points), Locking (15 points), Instability (25 points), Pain (25 points), Swelling (10 points), Stair climbing (10 points), and Squatting (5 points). […]

[3] = system: patient with degenerative osteoarthritis in the left knee with bone marrow edema lesions; experiment: Bone marrow edema lesions (BMEL) assessed by MRI, left knee, patient treated with PPS
Text: as §1, §2, §3, §4

[4] = system: patient with persistent pain following total right knee arthroplasty; experiment: Aseptic, persistent post-operative pain in right artificial knee joint after total knee replacement, patient treated with PPS; conditions: PPS 2 mg/kg SC twice weekly for 3 weeks
Text: as §1, §2, §3, §4

[5] = system: patient with left knee osteoarthritis and persistent right knee pain following TKR; experiment: Safety and tolerability (adverse events) of PPS under TGA SAS(B); conditions: PPS 2 mg/kg SC twice weekly for 3 weeks, one patient
Protocol: as §1
The patient was treated with PPS under the TGA Special Access Scheme (B). (Approval to use PPS as treatment for the patient was acquired from Department of Health—Therapeutic Goods Administration, Australian Government under the Special Access Scheme (SAS) since the injectable form of PPS was not a registered product in Australia.)
as §3

Substance: Pentosan polysulfate [PPS]
- After PPS/NRS Pain [1]: 0
- After PPS/Lysholm Knee Score [2]: 99
- BMEL reduction as assessed by magnetic resonance imaging ([3]; PPS 2 mg/kg SC twice weekly for 3 weeks): clearly visible BMEL reduction
- bone marrow edema stage, post-treatment MRI ([3]; after PPS, at baseline up to two thirds): negligible
- aseptic, persistent pain in the right artificial joint [4]: zero
- adverse events [5]: no adverse events were reported
